According to patent publication US20110182850A1, “ORGANIC COMPOUNDS AND THEIR USES” (priority 2009, published 2011):

Target: T1, HCV NS3-4A serine protease (full-length NS3-4A protein, genotype 1a, strain HCV-1) (Hepatitis C virus genotype 1a, UniProt P26664)
T1 construct: using the full-length NS3-4A protein (genotype 1a, strain HCV-1)
Assay: HCV NS3-4A protease assay
Format: biochemical
Conditions: Protease IC50
Method: The inhibitory activity of certain compounds of Table A against HCV NS3-4A serine protease is determined in a homogenous assay using the full-length NS3-4A protein (genotype 1a, strain HCV-1) and a commercially available internally-quenched fluorogenic peptide substrate as described by Taliani, M., et al. 1996 Anal. Biochem. 240:60-67, which is incorporated by reference in its entirety.

T1 sequence (P26664 1658-1711): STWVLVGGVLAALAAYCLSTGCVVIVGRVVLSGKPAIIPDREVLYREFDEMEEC
T1 sequence (P26664 1027-1657): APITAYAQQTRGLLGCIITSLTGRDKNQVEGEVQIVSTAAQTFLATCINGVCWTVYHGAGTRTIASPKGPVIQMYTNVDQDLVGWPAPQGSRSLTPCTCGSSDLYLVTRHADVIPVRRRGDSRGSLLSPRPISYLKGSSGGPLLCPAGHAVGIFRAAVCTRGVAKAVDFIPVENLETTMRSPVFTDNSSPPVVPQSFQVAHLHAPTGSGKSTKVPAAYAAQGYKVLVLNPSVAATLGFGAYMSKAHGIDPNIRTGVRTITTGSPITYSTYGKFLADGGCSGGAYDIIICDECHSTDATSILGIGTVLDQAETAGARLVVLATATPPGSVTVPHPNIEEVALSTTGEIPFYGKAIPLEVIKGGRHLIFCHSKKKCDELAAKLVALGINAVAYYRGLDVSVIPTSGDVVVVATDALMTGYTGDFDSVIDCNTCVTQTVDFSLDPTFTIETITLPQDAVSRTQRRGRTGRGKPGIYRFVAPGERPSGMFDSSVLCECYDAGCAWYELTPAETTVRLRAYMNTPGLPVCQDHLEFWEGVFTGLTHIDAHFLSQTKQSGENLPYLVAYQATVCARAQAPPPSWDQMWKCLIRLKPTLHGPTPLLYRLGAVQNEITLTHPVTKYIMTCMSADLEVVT

Row | SMILES | IC50 [nM]
1 | CC(C)(C)[C@H](NC(=O)[C@@H]1CCCCN1CCF)C(=O)N[C@H](C(=O)N1C[C@]2(C[C@H]1C(=O)NC1(C(=O)NS(=O)(=O)C3CC3)CC=CC1)C(C)(C)C21CCC1)C(C)(C)C [Compound 24, (5R,8S)-N-{1-[(cyclopropylsulfonyl)carba-moyl]cyclopent-3-en-1-yl}-7-[(2S)-2-{[(2S)-2-({[(2S)-1-(2-fluoroethyl)piperidin-2-yl]carbonyl}amino)-3,3-dimethylbutanoyl]amino}-3,3-dimethylbutanoyl]-10,10-dimethyl-7-azadispiro[3.0.4.1]decane-8-carboxamide] | 5250
2 | CC(C)N1CCCCC1C(=O)N[C@H](C(=O)N[C@H](C(=O)N1C[C@]2(C[C@H]1C(=O)N[C@]1(C(=O)NS(=O)(=O)C3CC3)CC=CCC1)C(C)(C)C21CCC1)C(C)(C)C)C1CCCCC1 (stereo partly drawn) [Compound 25, (5R,8S)-7-[(2S)-2-{[(2S)-2-cyclohexyl-2-{[(1-isopropylpiperidin-2-yl)carbonyl]amino}acetyl]amino}-3,3-dimethylbutanoyl]-N-{(1S)-1-[(cyclopropylsulfonyl)carba-moyl]cyclohex-3-en-1-yl}-10,10-dimethyl-7-azadispiro[3.0.4.1]decane-8-carboxamide] | 550
3 | CC(C)N1CCCCC1C(=O)N[C@H](C(=O)N[C@H](C(=O)N1C[C@]2(C[C@H]1C(=O)N[C@]1(C(=O)NS(=O)(=O)C3CC3)CC=CCC1)C(C)(C)C21CCC1)C(C)(C)C)C(C)(C)C (stereo partly drawn) [Compound 26, (5R,8S)-N-{(1S)-1-[(cyclopropylsulfonyl)carba-moyl]cyclohex-3-en-1-yl}-7-[(2S)-2-{[(2S)-2-{[(1-isopropylpiperidin-2-yl)carbonyl]amino}-3,3-dimethylbutanoyl]amino}-3,3-dimethylbutanoyl]-10,10-dimethyl-7-azadispiro[3.0.4.1]decane-8-carboxamide] | 2950
4 | CC(C)(C)[C@H](NC(=O)[C@@H](NC(=O)C1CCCCN1CCF)C1CCCCC1)C(=O)N1C[C@]2(C[C@H]1C(=O)N[C@]1(C(=O)NS(=O)(=O)C3CC3)CC=CCC1)C(C)(C)C21CCC1 (stereo partly drawn) [Compound 27, (5R,8S)-7-[(2S)-2-{[(2S)-2-cyclohexyl-2-({[1-(2-fluoroethyl)piperidin-2-yl]carbonyl}amino)acetyl]amino}-3,3-dimethylbutanoyl]-N-{(1S)-1-[(cyclopropylsulfonyl)carba-moyl]cyclohex-3-en-1-yl}-10,10-dimethyl-7-azadispiro[3.0.4.1]decane-8-carboxamide] | 2850
5 | CC(C)(C)[C@H](NC(=O)C1CCCCN1CCF)C(=O)N[C@H](C(=O)N1C[C@]2(C[C@H]1C(=O)N[C@]1(C(=O)NS(=O)(=O)C3CC3)CC=CCC1)C(C)(C)C21CCC1)C(C)(C)C (stereo partly drawn) [Compound 28, (5R,8S)-N-{(1S)-1-[(cyclopropylsulfonyl)carba-moyl]cyclohex-3-en-1-yl}-7-[(2S)-2-{[(2S)-2-({[1-(2-fluoroethyl)piperidin-2-yl]carbonyl}amino)-3,3-dimethylbutanoyl]amino}-3,3-dimethylbutanoyl]-10,10-dimethyl-7-azadispiro[3.0.4.1]decane-8-carboxamide] | 3150
6 | C=C[C@@H]1C[C@]1(NC(=O)[C@@H]1C[C@@]2(CN1C(=O)[C@@H](NC(=O)[C@@H](NC(=O)[C@@H]1CCCCN1CCF)C1CCCCC1)C(C)(C)C)C(C)(C)C21CCC1)C(=O)NS(=O)(=O)C1CC1 [Compound 29, (5R,8S)-7-[(2S)-2-{[(2S)-2-cyclohexyl-2-({[(2S)-1-(2-fluoroethyl)piperidin-2-yl]carbonyl}amino)acetyl]amino}-3,3-dimethylbutanoyl]-N-{(1R,2S)-1-[(cyclopropylsulfonyl)carba-moyl]-2-vinylcyclopropyl}-10,10-dimethyl-7-azadispiro[3.0.4.1]decane-8-carboxamide] | 1
7 | C=C[C@@H]1C[C@]1(NC(=O)[C@@H]1C[C@@]2(CN1C(=O)[C@@H](NC(=O)[C@@H](N1CCCC1=O)C(C)(C)C)C(C)(C)C)C(C)(C)C21CCC1)C(=O)NS(=O)(=O)C1CC1 [Compound 35, (5R,8S)-N-{(1R,2S)-1-[(cyclopropylsulfonyl)carba-moyl]-2-vinylcyclopropyl}-7-[(2S)-2-{[(2S)-3,3-dimethyl-2-(2-oxopyrrolidin-1-yl)butanoyl]amino}-3,3-dimethylbutanoyl]-10,10-dimethyl-7-azadispiro[3.0.4.1]decane-8-carboxamide] | 9
8 | C=C[C@@H]1C[C@]1(NC(=O)[C@@H]1C[C@@]2(CN1C(=O)[C@@H](NC(=O)[C@@H](NC(=O)[C@@H]1CCCCN1C(C)C)C(C)(C)CC)C(C)(C)C)C(C)(C)C21CCC1)C(=O)NS(=O)(=O)C1CC1 [Compound 36, (5R,8S)-N-{(1R,2S)-1-[(cyclopropylsulfonyl)carba-moyl]-2-vinylcyclopropyl}-7-[(2S)-2-{[(2S)-2-({[(2S)-1-isopropylpiperidin-2-yl]carbonyl}amino)-3,3-dimethylpentanoyl]amino}-3,3-dimethylbutanoyl]-10,10-dimethyl-7-azadispiro[3.0.4.1]decane-8-carboxamide] | 1
9 | C=C[C@@H]1C[C@]1(NC(=O)[C@@H]1C[C@@]2(CN1C(=O)[C@@H](NC(=O)[C@@H]1CCCCCCCN3CCCC[C@H]3C(=O)N1)C(C)(C)C)C(C)(C)C21CCC1)C(=O)NS(=O)(=O)C1CC1 [Compound 38, (5R,8S)-N-{(1R,2S)-1-[(cyclopropylsulfonyl)carba-moyl]-2-vinylcyclopropyl}-7-[(2S)-3,3-dimethyl-2-({[(3S,15aS)-1-oxotetradecahydro-2H-pyrido[1,2-a][1,4]diazacyclododecin-3-yl]carbonyl}amino)butanoyl]-10,10-dimethyl-7-azadispiro[3.0.4.1]decane-8-carboxamide] | 8
10 | C=C[C@@H]1C[C@]1(NC(=O)[C@@H]1C[C@@]2(CN1C(=O)[C@@H](NC(=O)[C@@H](NC(=O)c1cc(C(C)C)n[nH]1)C(C)(C)C)C(C)(C)C)C(C)(C)C21CCC1)C(=O)NS(=O)(=O)C1CC1 [Compound 39, (5R,8S)-N-{(1R,2S)-1-[(cyclopropylsulfonyl)carba-moyl]-2-vinylcyclopropyl}-7-[(2S)-2-{[(2S)-2-{[(3-isopropyl-1H-pyrazol-5-yl)carbonyl]amino}-3,3-dimethylbutanoyl]amino}-3,3-dimethylbutanoyl]-10,10-dimethyl-7-azadispiro[3.0.4.1]decane-8-carboxamide] | 6

Same assay, conditions: read-out: Protease IC50

Row | IC50 [nM] | SMILES
11 | 8 | C=C[C@@H]1C[C@]1(NC(=O)[C@@H]1C[C@@]2(CN1C(=O)[C@@H](NC(=O)N[C@H](C(=O)N(C)C)C(C)(C)C)C(C)(C)C)C(C)(C)C21CCC1)C(=O)NS(=O)(=O)C1CC1 [Compound 30, (5R,8S)-N-{(1R,2S)-1-[(cyclopropylsulfonyl)carba-moyl]-2-vinylcyclopropyl}-7-[(2S)-2-({[(1S)-1-(dimethylcarbamoyl)-2,2-dimethylpropyl]carbamoyl}amino)-3,3-dimethylbutanoyl]-10,10-dimethyl-7-azadispiro[3.0.4.1]decane-8-carboxamide]
12 | 15 | C=C[C@@H]1C[C@]1(NC(=O)[C@@H]1C[C@@]2(CN1C(=O)[C@@H](NC(=O)N[C@H](C(=O)N1CCOCC1)C(C)(C)C)C(C)(C)C)C(C)(C)C21CCC1)C(=O)NS(=O)(=O)C1CC1 [Compound 31, (5R,8S)-N-{(1R,2S)-1-[(cyclopropylsulfonyl)carba-moyl]-2-vinylcyclopropyl}-7-[(2S)-2-({[(1S)-2,2-dimethyl-1-(morpholin-4-ylcarbonyl)propyl]carbamoyl}amino)-3,3-dimethylbutanoyl]-10,10-dimethyl-7-azadispiro[3.0.4.1]decane-8-carboxamide]
13 | 30 | C=C[C@@H]1C[C@]1(NC(=O)[C@@H]1C[C@@]2(CN1C(=O)[C@@H](NC(=O)N[C@H](C(=O)NC)C(C)(C)C)C(C)(C)C)C(C)(C)C21CCC1)C(=O)NS(=O)(=O)C1CC1 [Compound 32, (5R,8S)-N-{(1R,2S)-1-[(cyclopropylsulfonyl)carba-moyl]-2-vinylcyclopropyl}-7-[(2S)-2-({[(1S)-2,2-dimethyl-1-(methylcarbamoyl)propyl]carbamoyl}amino)-3,3-dimethylbutanoyl]-10,10-dimethyl-7-azadispiro[3.0.4.1]decane-8-carboxamide]
14 | 1400 | C=C[C@@H]1C[C@]1(NC(=O)[C@@H]1C[C@@]2(CN1C(=O)[C@@H](NC(=O)N[C@H](CC(=O)N(C)C)C(C)(C)C)C(C)(C)C)C(C)(C)C21CCC1)C(=O)NS(=O)(=O)C1CC1 [Compound 33, (5R,8S)-N-{(1R,2S)-1-[(cyclopropylsulfonyl)carba-moyl]-2-vinylcyclopropyl}-7-{(2S)-2-[({(1R)-1-[2-(dimethylamino)-2-oxoethyl]-2,2-dimethylpropyl}carbamoyl)amino]-3,3-dimethylbutanoyl}-10,10-dimethyl-7-azadispiro[3.0.4.1]decane-8-carboxamide]
15 | 2150 | C=C[C@@H]1C[C@]1(NC(=O)[C@@H]1C[C@@]2(CN1C(=O)[C@@H](NC(=O)N[C@H](CC(=O)N1CCOCC1)C(C)(C)C)C(C)(C)C)C(C)(C)C21CCC1)C(=O)NS(=O)(=O)C1CC1 [Compound 34, (5R,8S)-N-{(1R,2S)-1-[(cyclopropylsulfonyl)carba-moyl]-2-vinylcyclopropyl}-7-[(2S)-2-({[(1R)-2,2-dimethyl-1-(2-morpholin-4-yl-2-oxoethyl)propyl]carbamoyl}amino)-3,3-dimethylbutanoyl]-10,10-dimethyl-7-azadispiro[3.0.4.1]decane-8-carboxamide]
16 | 45 | C=C[C@@H]1C[C@]1(NC(=O)[C@@H]1C[C@@]2(CN1C(=O)[C@@H](NC(=O)NC13CC4CC(CC(C4)C1)C3)C(C)(C)C)C(C)(C)C21CCC1)C(=O)NS(=O)(=O)C1CC1 [Compound 37, (5R,8S)-7-{(2S)-2-[(adamantan-1-ylcarbamoyl)amino]-3,3-dimethylbutanoyl}-N-{(1R,2S)-1-[(cyclopropylsulfonyl)carba-moyl]-2-vinylcyclopropyl}-10,10-dimethyl-7-azadispiro[3.0.4.1]decane-8-carboxamide]
